This is an account of results in US20240316249A1, “INJECTION FORMULATION COMPOSITION FOR USE AS FILLER OR DRUG CARRIER THROUGH CLICK CHEMISTRY REACTION” (AJOU UNIVERSITY INDUSTRY-ACADEMIC COOPERATION FOUNDATION, priority 2018, published 2024).

A short description of this data set: Amount of doxorubicin in tumor and organs after injection. It counts as in vivo, mice. The protocol: To perform a pharmacokinetic experiment, mice were sacrificed on day 1, day 6, day 12, and day 18. Organs (tumors, the intestines, lungs, kidneys, liver, spleen, and heart) were immediately acquired and photographed (FIG. 12). To measure the amount of doxorubicin remaining in each organ, each organ was homogenized in a 0.3N HCl/70% ethanol solution at 25,000 rpm to 30,000 rpm using a T 10 basic ULTRA-TURRAX Homogenizer (IKA-Werke GmbH & Co., Staufen, Germany), followed by incubation at 37° C. for 15 minutes. Each uniformly mixed sample was mixed with the same volume of 40% ZnSO4 and a mobile phase, and incubated again at 37° C. for 15 minutes. When the incubation was completed, each sample was centrifuged at 2,000 rpm for 10 minutes, and the amount of doxorubicin contained in the supernatant was calculated by referring to the standard calibration curve. The amount of doxorubicin contained in each organ was measured by a UV-visible Spectrophotometer (V-770, JASCO Inc., Tokyo, Japan) (FIG. 13).

“Also recorded” adds a separate entry of the source.

On to `COc1cccc2c1C(=O)c1c(O)c3c(c(O)c1C2=O)C[C@@](O)(C(=O)CO)C[C@@H]3O[C@H]1C[C@H](N)[C@H](O)[C@H](C)O1` [Dox, doxorubicin], for which the “occurrence of side effects due to the anticancer agent” value (Dox repeat injection (0.1 mg Dox)) was “induces various side effects”. The “distribution of anticancer agent in tumor and organs” value reads like this: (Dox repeat injection (0.1 mg Dox), compared to injection of doxorubicin alone (FIG. 13)) “a large amount of anticancer agent is present in a tumor; also recorded: a large amount of anticancer agent remains in various organs”; (single injection 0.4 mg Dox, day 1, 6, 12, 18 (FIG. 13)) “distributed more rapidly to various organs than a tumor”.
